# Test results as given in patent publication US20110218188A1, “SUBSTITUTED (PYRIDYL)-AZINYLAMINE DERIVATIVES AS FUNGICIDES” (priority 2008, published 2011).
# Marks after values point to notes of the source that are not given here.
# Test: Measurement of logP values by HPLC on reversed phase columns (EEC directive 79/831 Annex V.A8)
# Format: physicochemical
# Conditions: pH 2.7
logP,chromatographic logP,Compound
4.73,–,C#CCON=C(CC)c1cc(-c2ncnc(Nc3cccc(Cl)c3)n2)ccn1 (mixture of isomers) [B80]
3.83,–,CC1(C)CCCN(C(=O)c2cc(-c3ncnc(Nc4cccc(Cl)c4)n3)ccn2)C1 [Example B147]
–,3.32,"CC(=O)c1cc(-c2ncnc(Nc3cccc(Cl)c3)n2)ccn1 [Example B26, 1-(4-{4-[(3-chlorophenyl)amino]-1,3,5-triazin-2-yl}pyridin-2-yl)ethanone]"
3.39,–,COCC(COC)NC(=O)c1cc(-c2ncnc(Nc3cccc(Cl)c3)n2)ccn1 [B86]
5.46,–,CC(=NNc1ncc(C(F)(F)F)cc1Cl)c1cc(-c2ncnc(Nc3cccc(Cl)c3)n2)ccn1 [B90]
2.8,–,COCC(C1CC1)N(C)C(=O)c1cc(-c2ncnc(Nc3ccc(F)cc3)n2)ccn1 (stereo not shown) [Example B24]
3.11,–,O=C(c1cc(-c2ncnc(Nc3cccc(Cl)c3)n2)ccn1)N1CC=CCC1 [Example B153]
4.29,–,Cc1ccc(Nc2ncnc(-c3ccnc(C(=O)NC4CCC4)c3)n2)cc1Cl [B234]
2.80,–,COC(=O)c1cc(-c2ncnc(Nc3ccc(Cl)c(OC)c3)n2)ccn1 [B417]
2.45,–,CCN(CC)C(=O)c1cc(-c2ncnc(Nc3cccc(C#N)c3)n2)ccn1 [Example B292]
4.03,–,O=C(NC1CCCC1)c1cc(-c2ncnc(Nc3cccc(Cl)c3)n2)ccn1 [B71]
2.69,–,CCN(C)C(=O)c1cc(-c2ncnc(Nc3cccc(Cl)c3)n2)ccn1 [Example B157]
3.23,–,CCN(CC)C(=O)c1cc(-c2ncnc(Nc3cccc(C(F)(F)F)c3)n2)ccn1 [Example B346]
2.86,–,CCCN(C)C(=O)c1cc(-c2ncnc(Nc3ccc(F)c(F)c3)n2)ccn1 [Example B379]
4.24,–,CCC(COC)NC(=O)c1cc(-c2ncnc(Nc3ccc(C)c(Cl)c3)n2)ccn1 (stereo not shown) [B229]
1.82,–,CCN1CCCC(NC(=O)c2cc(-c3ncnc(Nc4cccc(Cl)c4)n3)ccn2)C1 (stereo not shown) [B122]
3.62,–,Cc1ccc(Nc2ncnc(-c3ccnc(C(=O)NC4CC4)c3)n2)cc1Cl [Example B226]
3.15,–,CC(C)N(C)C(=O)c1cc(-c2ncnc(Nc3cccc(C(F)(F)F)c3)n2)ccn1 [B360]
3.37,–,CN(CC1CC1)C(=S)c1cc(-c2ncnc(Nc3cccc(C(F)F)c3)n2)ccn1 [Example B331]
–,2.5,"CC(=NNCCC#N)c1cc(-c2ncnc(Nc3cccc(Cl)c3)n2)ccn1 [Example B81, 3-{2-[1-(4-{4-[(3-chlorophenyl)amino]-1,3,5-triazin-2-yl}pyridin-2-yl)ethylidene]hydrazinyl}propanenitrile]"
2.95,–,CC(=O)O/N=C(/N)c1cc(-c2ncnc(Nc3cccc(Cl)c3)n2)ccn1 [B109]
2.73,–,CCN(C)C(=S)c1cc(-c2ncnc(N(C(C)=O)c3cccc(F)c3)n2)ccn1 [Example B339]
–,2.23,"COC(=O)c1cc(-c2ncnc(Nc3ccsc3)n2)ccn1 [Example C24, methyl 4-[4-(3-thienylamino)-1,3,5-triazin-2-yl]pyridine-2-carboxylate]"

Compound,logP,chromatographic logP
CN(CC1CC1)C(=O)c1cc(-c2ncnc(Nc3ccsc3)n2)ccn1 [Example C15],2.53,–
CN(C)C(=O)c1cc(-c2ncnc(Nc3cccc(OC(F)(F)F)c3)n2)ccn1 [Example B266],2.7,–
CCN(C)C(=O)c1cc(-c2ncnc(Nc3cccc(C(F)(F)F)c3)n2)ccn1 [Example B256],2.86,–
CC(C)CN(C)C(=O)c1cc(-c2ncnc(Nc3ccccc3)n2)ccn1 [Example B315],2.84,–
CON(C)C(=O)c1cc(-c2ncnc(Nc3cccc(Cl)c3)n2)ccn1 [Example B186],2.59,–
CN(CCC#N)C(=O)c1cc(-c2ncnc(Nc3cccc(Cl)c3)n2)ccn1 [Example B129],2.51,–

# Same assay, conditions: pH 7.8
row,logP,Compound
1,2.58^[c],C=CCN(CC=C)C(=O)c1cc(-c2ncnc(Nc3ccc(OC)nc3)n2)ccn1 [Example C7]
2,2.33^[c],CCN(OC)C(=O)c1cc(-c2ncnc(Nc3ccsc3)n2)ccn1 [Example C32]
